Assay [1] has as its target human SOS1 (loading of human K-Ras^G12C-GDP with fluorescent GTP-analog) (Homo sapiens, UniProt Q07889). The experiment in a line: Biochemical assay 3: K-Ras^G12C activation assay by hSOS1 (HTRF). To be noted: no GTP; for IC50: read-out: Assay 3 (KRAS-Activation by SOS no GTP) activity expressed as IC50; for inhibition at 20 µM: read-out: Assay 3 (KRAS-Activation by SOS no GTP) activity expressed as % inhibition at 20 μM.

Assay [2] concerns the target Epidermal Growth Factor Receptor (EGFR) (Homo sapiens (Human), UniProt P00533). As to the kind of experiment: EGFR kinase assay (TR-FRET). To be noted: values given in μM; read-out: EGFR kinase inhibition IC50. It is filed as biochemical. The method, boiled down: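 Read-out is the 665/620 nm HTRF ratio, from a Tb-cryptate anti-phosphotyrosine antibody and streptavidin-XL665 bound to phosphorylated biotin-peptide substrate. The enzyme, A431-derived EGFR (~3 U/ml), was given 15 min compound pre-binding at 22° C in Hepes pH 7.0 with Mg2+/Mn2+ before reaction.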
For orientation: In TR-FRET formats the signal depends on donor and acceptor labels being close together.

Bounds are passed on as bounds.

In general, IC50 refers to the point on the concentration scale where inhibition reaches its midpoint. As a reminder, the inhibition is the share of the control response that was lost under treatment.

Sequence of Epidermal Growth Factor Receptor (EGFR) (P00533 25-1210): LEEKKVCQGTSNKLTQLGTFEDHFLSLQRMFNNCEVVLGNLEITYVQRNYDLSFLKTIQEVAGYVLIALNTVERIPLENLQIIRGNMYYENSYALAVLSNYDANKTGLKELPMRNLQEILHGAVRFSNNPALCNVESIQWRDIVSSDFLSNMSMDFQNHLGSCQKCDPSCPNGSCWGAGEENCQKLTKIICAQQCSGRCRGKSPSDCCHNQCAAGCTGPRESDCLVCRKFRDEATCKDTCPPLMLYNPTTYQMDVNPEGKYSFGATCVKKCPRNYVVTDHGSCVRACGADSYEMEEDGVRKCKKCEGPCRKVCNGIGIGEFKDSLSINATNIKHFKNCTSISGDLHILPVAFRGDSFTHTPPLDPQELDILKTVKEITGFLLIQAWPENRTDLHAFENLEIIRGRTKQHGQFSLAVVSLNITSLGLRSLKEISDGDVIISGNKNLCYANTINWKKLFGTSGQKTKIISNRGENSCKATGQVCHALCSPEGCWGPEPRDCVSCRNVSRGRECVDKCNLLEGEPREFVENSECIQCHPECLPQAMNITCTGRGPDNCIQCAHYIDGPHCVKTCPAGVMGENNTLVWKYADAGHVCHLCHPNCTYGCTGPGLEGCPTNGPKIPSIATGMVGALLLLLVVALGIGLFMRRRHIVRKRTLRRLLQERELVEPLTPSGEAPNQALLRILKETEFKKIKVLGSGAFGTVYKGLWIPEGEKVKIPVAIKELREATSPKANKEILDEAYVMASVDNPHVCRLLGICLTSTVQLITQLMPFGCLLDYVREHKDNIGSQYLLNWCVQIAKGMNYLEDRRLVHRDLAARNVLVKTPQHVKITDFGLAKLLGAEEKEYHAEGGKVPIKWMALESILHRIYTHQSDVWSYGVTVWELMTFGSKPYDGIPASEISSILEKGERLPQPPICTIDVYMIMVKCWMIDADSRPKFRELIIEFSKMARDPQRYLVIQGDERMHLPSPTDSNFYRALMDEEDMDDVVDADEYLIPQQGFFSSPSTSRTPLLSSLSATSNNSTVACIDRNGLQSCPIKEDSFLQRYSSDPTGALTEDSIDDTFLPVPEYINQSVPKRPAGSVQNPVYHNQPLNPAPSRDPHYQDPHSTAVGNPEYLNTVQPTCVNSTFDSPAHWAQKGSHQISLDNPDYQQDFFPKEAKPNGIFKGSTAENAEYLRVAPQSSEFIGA

As to `COc1cc2nc(C)nc(NC(C)c3cc(-c4cnc5n4CCC5)cs3)c2cc1OC` (stereo not shown) [Example 272, N-{1-[4-(6,7-dihydro-5H-pyrrolo[1,2-a]imidazol-3-yl)thiophen-2-yl]ethyl}-6,7-dimethoxy-2-methylquinazolin-4-amine], the IC50 in assay [1] was 2.5 µM; in assay [2] it was greater than 20 µM.

In the case of `COc1cc2nc(C)nc(NC(C)c3ccc(-c4ccccc4CN4CCC4)s3)c2cc1OC` (stereo not shown) [Example 317, N-[1-{5-[2-(azetidin-1-ylmethyl)phenyl]thiophen-2-yl}ethyl]-6,7-dimethoxy-2-methylquinazolin-4-amine], the figures for the half-maximal inhibitory concentration (IC50) in assay [1] and in assay [2] were 0.0884 µM and greater than 20 µM, respectively.

Consider `COc1cc2nc(C)nc(NC(C)c3ccc(-c4ccc(F)cc4CNC(=O)c4ncc[nH]4)s3)c2cc1OC` (stereo not shown) [Example 293, N-[2-(5-{1-[(6,7-dimethoxy-2-methylquinazolin-4-yl)amino]ethyl}thiophen-2-yl)-5-fluorobenzyl]-1H-imidazole-2-carboxamide], for which the IC50 in assay [1] was 8.2 µM; in assay [2], greater than 20 µM.

For the molecule `COc1cc2nc(C)nc(NC(C)c3cccc4c3cnn4C)c2cc1OC` (stereo not shown) [Example 17, 6,7-dimethoxy-2-methyl-N-[1-(1-methyl-1H-indazol-4-yl)ethyl]quinazolin-4-amine], the results for the IC50 in assay [1] and in assay [2] were 0.712 µM and greater than 20 µM, respectively.

Take `COc1cc2nc(C)nc(NC(C)c3ccc(-c4cnc5n4CCC5)s3)c2cc1OC` (single isomer, unassigned; enantiomer 1) [Example 328, N-{1-[5-(6,7-dihydro-5H-pyrrolo[1,2-a]imidazol-3-yl)thiophen-2-yl]ethyl}-6,7-dimethoxy-2-methylquinazolin-4-amine, Enantiomer 1]: the IC50 in assay [1] is 0.669 µM; in assay [2], greater than 20 µM.

As to `COc1cc2nc(C)nc(NC(C)c3cc(-c4ccn(CCN5CCCC5)n4)cs3)c2cc1OC` (stereo not shown) [Example 267, 6,7-dimethoxy-2-methyl-N-[1-(4-{1-[2-(pyrrolidin-1-yl)ethyl]-1H-pyrazol-3-yl}thiophen-2-yl)ethyl]quinazolin-4-amine], the IC50 in assay [1] is 1.78 µM; in assay [2], greater than 20 µM.

Turning to `COc1cc2nc(C)nc(NC(C)c3cc(-c4ccccc4CN)cs3)c2cc1OC` (stereo not shown) [Example 270, N-[1-{4-[2-(aminomethyl)phenyl]thiophen-2-yl}ethyl]-6,7-dimethoxy-2-methylquinazolin-4-amine], the figures for the IC50 in assay [1] and in assay [2] were 0.098 µM and greater than 20 µM, respectively.

Take `COc1cc2nc(C)nc(N[C@H](C)c3cccc(-c4c(C)noc4C)c3)c2cc1OC` [Example 336, N-{(1R)-1-[3-(3,5-dimethyl-1,2-oxazol-4-yl)phenyl]ethyl}-6,7-dimethoxy-2-methyl-quinazolin-4-amine]: the half-maximal inhibitory concentration (IC50) in assay [1] is 1.99 µM; in assay [2] it was greater than 20 µM.

On to `COc1cc2nc(C)nc(NC(C)c3ccc(-c4cc(C)n(C)c4C#N)s3)c2cc1OC` (stereo not shown) [Example 286, 3-(5-{1-[(6,7-dimethoxy-2-methylquinazolin-4-yl)amino]ethyl}thiophen-2-yl)-1,5-dimethyl-1H-pyrrole-2-carbonitrile], for which the inhibition at 20 µM in assay [1] was 36%. Besides, in assay [2], the half-inhibitory concentration (IC50) is greater than 20 µM.

For the molecule `COc1cc2nc(C)nc(NC(C)c3ccc(-c4ccccc4CN4CC(F)C4)s3)c2cc1OC` (stereo not shown) [Example 322, N-[1-(5-{2-[(3-fluoroazetidin-1-yl)methyl]phenyl}thiophen-2-yl)ethyl]-6,7-dimethoxy-2-methylquinazolin-4-amine], the values for the IC50 in assay [1] and in assay [2] were 0.268 µM and greater than 20 µM, respectively.

Consider `COc1cc2nc(C)nc(NC(C)c3ccc4c(c3)OCCO4)c2cc1OC` (stereo not shown) [Example 19, N-[1-(2,3-dihydro-1,4-benzodioxin-6-yl)ethyl]-6,7-dimethoxy-2-methylquinazolin-4-amine], for which, in assay [1], the inhibition at 20 µM was found to be 44%. For the same molecule, in assay [2], the half-maximal inhibitory concentration (IC50) is greater than 20 µM.

For `COc1cc2nc(C)nc(NC(C)c3ccc(-c4ccccc4CNc4ccccn4)s3)c2cc1OC` (stereo not shown) [Example 301, 6,7-di methoxy-2-methyl-N-[1-(5-{2-[(pyridin-2-ylamino)methyl]phenyl}thiophen-2-yl)ethyl]quinazolin-4-amine], the IC50 in assay [1] is 1.93 µM; in assay [2] it was greater than 20 µM.

With `COc1cc2nc(C)nc(NC(C)c3cc(Br)cs3)c2cc1OC` (stereo not shown) [Example 264, N-[1-(4-bromothiophen-2-yl)ethyl]-6,7-dimethoxy-2-methylquinazolin-4-amine], the IC50 in assay [1] is 4.61 µM; in assay [2] it was greater than 20 µM.

For `COC(=O)CNCc1ccccc1-c1ccc(C(C)Nc2nc(C)nc3cc(OC)c(OC)cc23)s1` (stereo not shown) [Example 281, methyl N-[2-(5-{1-[(6,7-dimethoxy-2-methylquinazolin-4-yl)amino]ethyl}thiophen-2-yl)benzyl]glycinate], the half-inhibitory concentration (IC50) in assay [1] was 0.367 µM; in assay [2], greater than 20 µM.

On to `COc1cc2nc(C)nc(NC(C)c3cccc(OC)c3OC)c2cc1OC` (stereo not shown) [Example 21, N-[1-(2,3-dimethoxyphenyl)ethyl]-6,7-dimethoxy-2-methylquinazolin-4-amine], for which the values for the IC50 in assay [1] and in assay [2] were 11.1 µM and greater than 20 µM, respectively.

Take `COc1cc2nc(C)nc(NC(C)c3ccc(-c4ccc(F)cc4CNC(=O)c4cc[nH]n4)s3)c2cc1OC` (stereo not shown) [Example 310, N-[2-(5-{1-[(6,7-dimethoxy-2-methylquinazolin-4-yl)amino]ethyl}thiophen-2-yl)-5-fluorobenzyl]-1H-pyrazole-3-carboxamide]: the IC50 in assay [1] was 5.76 µM; in assay [2] it was greater than 20 µM.

With `COc1cc2nc(C)nc(NC(C)c3ccc(-c4ccc(CN)s4)s3)c2cc1OC` (stereo not shown) [Example 276, N-{1-[5′-(aminomethyl)-2,2′-bithiophen-5-yl]ethyl}-6,7-dimethoxy-2-methylquinazolin-4-amine], the IC50 in assay [1] is 2.16 µM; in assay [2] it was greater than 20 µM.

As to `CCN(CC)Cc1ccccc1-c1ccc(C(C)Nc2nc(C)nc3cc(OC)c(OC)cc23)s1` (stereo not shown) [Example 288, N-[1-(5-{2-[(diethylamino)methyl]phenyl}thiophen-2-yl)ethyl]-6,7-dimethoxy-2-methylquinazolin-4-amine], the IC50 in assay [1] is 0.247 µM; in assay [2], greater than 20 µM.

`COc1cc2nc(C)nc(NC(C)c3cc(C)cc4[nH]ncc34)c2cc1OC` (stereo not shown) [Example 16, 6,7-dimethoxy-2-methyl-N-[1-(6-methyl-1H-indazol-4-yl)ethyl]quinazolin-4-amine]: the IC50 in assay [1] is 8.17 µM; in assay [2], greater than 20 µM.

For the molecule `COc1cc2nc(C)nc(NC(C)c3ccc(-c4ccccc4CN4CCCC(C(N)=O)C4)s3)c2cc1OC` (stereo not shown) [Example 290, 1-[2-(5-{1-[(6,7-dimethoxy-2-methylquinazolin-4-yl)amino]ethyl}thiophen-2-yl)benzyl]piperidine-3-carboxamide], the IC50 in assay [1] was 0.159 µM; in assay [2], greater than 20 µM.

Turning to `COc1cc2nc(C)nc(NC(C)c3ccc(-c4ccccc4CN4CC(F)(F)C4)s3)c2cc1OC` (stereo not shown) [Example 320, N-[1-(5-{2-[(3,3-difluoroazetidin-1-yl)methyl]phenyl}thiophen-2-yl)ethyl]-6,7-dimethoxy-2-methylquinazolin-4-amine], the IC50 was 3.49 µM in assay [1] and greater than 20 µM in assay [2].

Consider `COc1cc2nc(C)nc(NC(C)c3ccc(-c4ccccc4CN4CCOCC4)s3)c2cc1OC` (stereo not shown) [Example 311, 6,7-dimethoxy-2-methyl-N-[1-{5-[2-(morpholin-4-ylmethyl)phenyl]thiophen-2-yl}ethyl]quinazolin-4-amine], for which the IC50 was 0.629 µM in assay [1] and greater than 20 µM in assay [2].

As to `COc1cc2nc(C)nc(NC(C)c3ccc(-c4ccccc4CNCCO)s3)c2cc1OC` (stereo not shown) [Example 297, 2-{[2-(5-{1-[(6,7-dimethoxy-2-methylquinazolin-4-yl)amino]ethyl}thiophen-2-yl)benzyl]amino}ethanol], the IC50 in assay [1] was 0.0606 µM; in assay [2] it was greater than 20 µM.

`COc1cc2nc(C)nc(NC(C)c3ccc(-c4ccc(F)cc4CNC(=O)[C@H]4CCCN4)s3)c2cc1OC` (stereo in doubt) [Example 316, N-[2-(5-{1-[(6,7-dimethoxy-2-methylquinazolin-4-yl)amino]ethyl}thiophen-2-yl)-5-fluorobenzyl]-prolinamide]: the IC50 in assay [1] was 0.308 µM; in assay [2] it was greater than 20 µM.

As to `COc1cc2nc(C)nc(NC(C)c3ccc(-c4ccccc4CN[C@H]4CCN(C)C4=O)s3)c2cc1OC` (stereo partly drawn) [Example 309, (3S)-{[2-(5-{1-[(6,7-dimethoxy-2-methylquinazolin-4-yl)amino]ethyl}thiophen-2-yl)benzyl]amino}-1-methylpyrrolidin-2-one], the IC50 was 0.88 µM in assay [1] and greater than 20 µM in assay [2].

For the molecule `COc1cc2nc(C)nc(NC(C)c3ccc(-c4ccccc4CN4CC(N(C)C)C4)s3)c2cc1OC` (stereo not shown) [Example 319, N-{1-[5-(2-{[3-(dimethylamino)azetidin-1-yl]methyl}phenyl)thiophen-2-yl]ethyl}-6,7-dimethoxy-2-methylquinazolin-4-amine], the IC50 in assay [1] was 0.127 µM; in assay [2] it was greater than 20 µM.

Consider `COc1cc2nc(C)nc(NC(C)c3ccnc4sccc34)c2cc1OC` (stereo not shown) [Example 331, 6,7-dimethoxy-2-methyl-N-[1-(thieno[2,3-b]pyridin-4-yl)ethyl]quinazolin-4-amine], for which the IC50 in assay [1] was 3.17 µM; in assay [2], greater than 20 µM.

`COc1cc2nc(C)nc(NC(C)c3ccc(-c4ccccc4C(C)=O)s3)c2cc1OC` (stereo not shown) [Example 324, 1-[2-(5-{1-[(6,7-dimethoxy-2-methylquinazolin-4-yl)amino]ethyl}thiophen-2-yl)phenyl]ethanone]: the results for the IC50 in assay [1] and in assay [2] were 6.84 µM and greater than 20 µM, respectively.

In the case of `COc1cc2nc(C)nc(NC(C)c3cccc4ccsc34)c2cc1OC` (stereo not shown) [Example 15, N-[1-(1-benzothiophen-7-yl)ethyl]-6,7-dimethoxy-2-methylquinazolin-4-amine], the figures for the IC50 in assay [1] and in assay [2] were 0.324 µM and greater than 20 µM, respectively.

The values are drawn from patent US20240083857A1, “2-Methyl-Quinazolines” (Bayer Pharma Aktiengesellschaft, priority 2017, published 2024).
